Experimental data taken from US6110491A, “Compound-loaded liposomes and methods for their preparation” (Hermes Biosciences, Inc., priority 1997, dated 2000).
“Also recorded” adds a separate entry of the source.

Experiments:
[1] = Doxorubicin loading into liposomes containing ammonium polyacrylate or sulfate in absence of ammonium ion gradient (Example 7); type: physicochemical; conditions: for Doxorubicin absorbed by liposomes: no ammonium ion gradient; for Doxorubicin incorporation into liposomes: outer Cl-
Description: Liposomes with entrapped ammonium sulfate or ammonium polyacrylate were prepared from the lipid mixture of hydrogenated soybean phosphatidylcholine (Avanti PolarLipids, Ala., U.S.A.), cholesterol (Calbiochem, USA), and poly(ethylene glycol) (Mol. weight 2,000) derivative of distearoyl phosphatidyl ethanolamine (PEG-DSPE) (Sygena, Switzerland), at the molar ratio 60:40:6, by lipid film hydration, repetitive freezing-thawing at 60° C. (6 times) and extrusion through two stacked polycarbonate track-etched membranes with the pore size 100 nm at 60° C. (12 times). The bulk aqueous phase of the liposomes was exchanged by gel-filtration for the outer buffer, 0.2 M ammonium chloride, adjusted (when necessary) to pH 7.3 and buffered with 10 mM sodium hydroxyethylpiperazino-ethane sulfonate (HEPES). The inner (entrapped) solution had ammonium ion concentration of 200 milli-eqivalent/L, i.e. the same as the outer buffer (no ammonium ion gradient), and the anion composition and pH as indicated below. Polyacrylic acid with mol. weight of 2,000 (Aldrich Chemical Co.) was used. Doxorubicin was added to the liposomes at 2 mg for each 6-8 micro-mol of phospholipid, and incubated with shaking at 60° C., i.e. above the transition temperature of the lipid bilayer, for various times as specified below. […] Doxorubicin-loaded liposomes were separated from the free drug by gel-chromatography on Sephadex G-75, eluted with the outer buffer. Liposomal doxorubicin was assayed by spectrophotometry at 485 nm, phospholipid was quantitated by molybdate method after acid digestion of the liposomes.

[2] = Doxorubicin precipitation by Inner Buffer anions (Example 9); type: physicochemical; conditions: for Doxorubicin precipitation: 1 mg/ml, 22° C., 3 hours
Description: Doxorubicin hydrochloride was added to the aliquots of Inner Buffers described in the Example 8 above to achieve final concentration of 1 mg/ml. The mixtures were briefly incubated at 60° C. to effect maximum drug dissolution, and further equilibrated at ambient temperature (22° C.) with gentle shaking for 3 hours. Precipitated doxorubicin was separated by centrifugation of an Eppendorf centrifuge (10,000 rpm, 5 min.), and the amount of doxorubicin in supernatant fluid was determined by spectrophotometry. The percent of drug precipitation was calculated as 100% less the percent of doxorubicin remaining in the supernatant fluid relative to the total added doxorubicin.

[3] = liposomes loaded by the ammonium ion method (Haran, et al., 1993); cited from earlier work
[4] = Doxorubicin loading into liposomes with entrapped anions essentially free from transmembrane pH or ammonium ion gradients (Example 8); type: physicochemical; conditions: 36° C., 12 hours
Description: Aqueous solutions containing ammonium salts of hydrochloric, nitric, methanesulfonic, L(+)-tartaric, citric, sulfuric, phosphoric, diethylenetriamine pentaacetic (DTPA), or polyacrylic (Mol. weight. 2,000) acids were prepared by titration of the respective acids in water with the standard aqueous solution of ammonium hydroxide to achieve pH 7.3±0.05,followed by volume adjustment to achieve 0.2 equivalent/L of ammonium ion, and, if necessary, by addition of dry sucrose to achieve osmolarity of 377 mmol/kg. (These solutions are hereinafter referred to as Inner Buffers). All solutions additionally contained 10 mM hydroxyethylpiperazinoethane sulfonic acid (HEPES) to stabilize the pH at titration endpoint. To afford determination of intraliposomal pH, a fluorescence indicator 8-hydroxypyrene trisulfonate was added to the solutions to the final concentration of 0.2 mM. Liposomes containing entrapped ammonium salt solutions as above were prepared from egg phosphatidyl choline, cholesterol, and PEG-DSPE as described in the Example 7, except that lipid hydration and extrusion were carried out at room temperature. The bulk aqueous phases of liposome preparations were exchanged by gel-filtration for an aqueous solution (Outer buffer) containing 0.2 M ammonium chloride, 10 mM HEPES, pH 7.3, osmolarity 377 mmol/kg, to obtain liposome preparations substantially without transmembrane ammonium-ion gradients. Loading of doxorubicin was performed as in Example 7, except that it was at 36° C. for 12 hours. Intraliposomal pH was determined using HPTS fluorescence method (Straubinger, et al., 1990) prior to drug loading, and indicated essentially no inside-outside pH gradient (less than 0.2 pH units), compared with the gradient of several pH units typical for ammonium ion gradient liposomes (Haran, et al., 1993). The following results were obtained (nd, not determined)

[5] = Effect of membrane-active ion carriers on loading of doxorubicin into liposomes with entrapped potassium polyacrylate (Example 6, FIG. 1); type: physicochemical; conditions: valinomycin, CCCP or nigericin vs. none (FIG. 1)
From the text: The liposomes prepared according to the present invention can be clearly distinguished from similar liposomes prepared by pH gradient, or ammonium ion gradient methods, by the liposomal response to membrane-active ion carriers which destroy transmembrane electrochemical gradients. For example, CCCP is a membrane proton carrier which destroys transmembrane pH gradients and leads to quick release of a liposomal-entrapped compound.
In contrast, liposomes prepared according to this invention, load doxorubicin in the presence of CCCP or nigericin with nearly the same efficiency as in the absence of such membrane-active ion carriers. This is shown in FIG. 1, where the loading of doxorubicin into liposomes in the presence of valinomycin, CCCP or nigericin was determined as a function of time. The liposomes were prepared as described in Example 1 to have entrapped potassium polyacrylate.

[6] = inner buffer anion L(+)-tartrate
[7] = inner buffer anion methanesulfonate
[8] = inner buffer anion polyacrylate

COc1cccc2c1C(=O)c1c(O)c3c(c(O)c1C2=O)C[C@@](O)(C(=O)CO)C[C@@H]3O[C@H]1C[C@H](N)[C@H](O)[C@H](C)O1 [doxorubicin]
Doxorubicin absorbed by liposomes ([1]; ammonium polyacrylate liposomes): considerable amounts
Doxorubicin absorbed by liposomes ([1]; ammonium sulfate liposomes, 60° C.): very small amounts
Doxorubicin precipitate formation ([1]; in the presence of polyacrylate anion, 60° C.): visibly precipitated
Doxorubicin precipitate formation ([1]; in the presence of sulfate anion, 60° C.): did not form a detectable precipitate
Doxorubicin incorporation into liposomes ([1]; inner SO4^2-, pH 7.3, 1 hour, 60° C.): 6.1 ± 0.8 mg of drug/mmol of liposome ph
Doxorubicin incorporation into liposomes ([1]; inner SO4^2-, pH 7.3, 16 hours, 60° C.): 5.1 ± 0.2 mg of drug/mmol of liposome ph
Doxorubicin incorporation into liposomes ([1]; inner polyacrylate, pH 5.2, 1 hour, 60° C.): 59.7 ± 2.5 mg of drug/mmol of liposome ph
Doxorubicin incorporation into liposomes ([1]; inner polyacrylate, pH 7.3, 1 hour, 60° C.): 91.0 ± 2.8 mg of drug/mmol of liposome ph
correlation coefficient R, extent of drug loading vs. drug solubility in Inner Buffer ([2]; Examples 8 and 9): 0.9043
Doxorubicin precipitation ([2]; inner buffer anion DTPA): 58.1%
Doxorubicin precipitation [2, 6]: 25.0%
Doxorubicin precipitation ([2]; inner buffer anion chloride): 1.1%
Doxorubicin precipitation ([2]; inner buffer anion citrate): 81.4%
Doxorubicin precipitation [2, 7]: 0%
Doxorubicin precipitation ([2]; inner buffer anion nitrate): 0%
Doxorubicin precipitation ([2]; inner buffer anion phosphate): 73.7%
Doxorubicin precipitation [2, 8]: 98.4%
Doxorubicin precipitation ([2]; inner buffer anion sulfate): 47.5%
Doxorubicin release by nigericin [3]: quickly releases
Doxorubicin incorporation into liposomes ([4]; inner buffer anion DTPA): 40.8 mg of drug/mmol of liposome ph
Doxorubicin incorporation into liposomes [4, 6]: 27.5 mg of drug/mmol of liposome ph
Doxorubicin incorporation into liposomes ([4]; inner buffer anion chloride): 16.8 mg of drug/mmol of liposome ph
Doxorubicin incorporation into liposomes ([4]; inner buffer anion citrate): 97.9 mg of drug/mmol of liposome ph
Doxorubicin incorporation into liposomes [4, 7]: 17.1 mg of drug/mmol of liposome ph
Doxorubicin incorporation into liposomes ([4]; inner buffer anion nitrate): 12.4 mg of drug/mmol of liposome ph
Doxorubicin incorporation into liposomes ([4]; inner buffer anion phosphate): 68.1 mg of drug/mmol of liposome ph
Doxorubicin incorporation into liposomes [4, 8]: 142.7 mg of drug/mmol of liposome ph
Doxorubicin incorporation into liposomes ([4]; inner buffer anion sulfate): 33.5 mg of drug/mmol of liposome ph
Doxorubicin loading in presence of membrane-active ion carriers [5]: substantially equal efficiency; also recorded: substantially unaffected
